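Dose response: 5 concentrations. Exposure: 48 h. Format: 96-well plates. Endpoint: linear interpolation; highest concentration if not reached. GI50 is the concentration that inhibits growth by half. TGI is the concentration that stops growth completely.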
Assays:
Experiment in all cases: inhibition of tumour cell growth, NCI panel, 48 h
786-0 renal = test system: 786-0 renal
A498 renal = test system: A498 renal
A549 NSCLC = test system: A549 NSCLC
ACHN renal = test system: ACHN renal
BT-549 breast = test system: BT-549 breast
CAKI-1 renal = test system: CAKI-1 renal
CCRF-CEM leukemia = test system: CCRF-CEM leukemia
COLO 205 colon = test system: COLO 205 colon
DU-145 prostate = test system: DU-145 prostate
EKVX NSCLC = test system: EKVX NSCLC
HCC-2998 colon = test system: HCC-2998 colon
HCT-116 colon = test system: HCT-116 colon
HCT-15 colon = test system: HCT-15 colon
HL-60(TB) leukemia = test system: HL-60(TB) leukemia
HOP-62 NSCLC = test system: HOP-62 NSCLC
HOP-92 NSCLC = test system: HOP-92 NSCLC
HS 578T breast = test system: HS 578T breast
HT29 colon = test system: HT29 colon
IGROV1 ovarian = test system: IGROV1 ovarian
K-562 leukemia = test system: K-562 leukemia
KM12 colon = test system: KM12 colon
LOX IMVI melanoma = test system: LOX IMVI melanoma
M14 melanoma = test system: M14 melanoma
MALME-3M melanoma = test system: MALME-3M melanoma
MCF7 breast = test system: MCF7 breast
MDA-MB-231 breast = test system: MDA-MB-231 breast
MDA-MB-435 = test system: MDA-MB-435
MOLT-4 leukemia = test system: MOLT-4 leukemia
NCI-H226 lung = test system: NCI-H226 lung
NCI-H23 lung = test system: NCI-H23 lung
NCI-H460 lung = test system: NCI-H460 lung
NCI-H522 lung = test system: NCI-H522 lung
NCI/ADR-RES ovarian = test system: NCI/ADR-RES ovarian
OVCAR-3 ovarian = test system: OVCAR-3 ovarian
OVCAR-4 ovarian = test system: OVCAR-4 ovarian
OVCAR-5 ovarian = test system: OVCAR-5 ovarian
OVCAR-8 ovarian = test system: OVCAR-8 ovarian
PC-3 prostate = test system: PC-3 prostate
RPMI-8226 leukemia = test system: RPMI-8226 leukemia
RXF 393 renal = test system: RXF 393 renal
SF-268 CNS = test system: SF-268 CNS
SF-295 CNS = test system: SF-295 CNS
SF-539 CNS = test system: SF-539 CNS
SK-MEL-2 melanoma = test system: SK-MEL-2 melanoma
SK-MEL-28 melanoma = test system: SK-MEL-28 melanoma
SK-MEL-5 melanoma = test system: SK-MEL-5 melanoma
SK-OV-3 ovarian = test system: SK-OV-3 ovarian
SN12C renal = test system: SN12C renal
SNB-19 CNS = test system: SNB-19 CNS
SNB-75 CNS = test system: SNB-75 CNS
SR leukemia = test system: SR leukemia
SW-620 colon = test system: SW-620 colon
T-47D breast = test system: T-47D breast
TK-10 renal = test system: TK-10 renal
U251 CNS = test system: U251 CNS
UACC-257 melanoma = test system: UACC-257 melanoma
UACC-62 melanoma = test system: UACC-62 melanoma
UO-31 renal = test system: UO-31 renal

CCn1c(-c2nonc2N)nc2c(C#CC(C)(C)O)nc(OC[C@H](N)c3ccccc3)cc21
GI50 (786-0 renal): 1.91 µM
TGI (786-0 renal): 5.43 µM
GI50 (A498 renal): 0.157 µM
TGI (A498 renal): 7.63 µM
GI50 (A549 NSCLC): 3.69 µM
TGI (A549 NSCLC): 7.45 µM
GI50 (ACHN renal): 2.6 µM
TGI (ACHN renal): 5.78 µM
GI50 (BT-549 breast): 3.39 µM
TGI (BT-549 breast): 6.74 µM
GI50 (CAKI-1 renal): 3.94 µM
TGI (CAKI-1 renal): 8.93 µM
GI50 (CCRF-CEM leukemia): 3.65 µM
TGI (CCRF-CEM leukemia): 24.9 µM
GI50 (COLO 205 colon): 3.52 µM
TGI (COLO 205 colon): 7 µM
GI50 (DU-145 prostate): 3.26 µM
TGI (DU-145 prostate): 6.47 µM
GI50 (EKVX NSCLC): 10.8 µM
TGI (EKVX NSCLC): 18.1 µM
GI50 (HCC-2998 colon): 3.74 µM
TGI (HCC-2998 colon): 7.59 µM
GI50 (HCT-116 colon): 3.55 µM
TGI (HCT-116 colon): 6.99 µM
GI50 (HCT-15 colon): 2.53 µM
TGI (HCT-15 colon): 6.73 µM
GI50 (HL-60(TB) leukemia): 5.23 µM
TGI (HL-60(TB) leukemia): 10.1 µM
GI50 (HOP-62 NSCLC): 5.54 µM
TGI (HOP-62 NSCLC): 9.99 µM
GI50 (HOP-92 NSCLC): 2.37 µM
TGI (HOP-92 NSCLC): 7.38 µM
GI50 (HS 578T breast): 1.8 µM
TGI (HS 578T breast): 7.28 µM
GI50 (HT29 colon): 4.11 µM
TGI (HT29 colon): 8.81 µM
GI50 (IGROV1 ovarian): 2.63 µM
TGI (IGROV1 ovarian): 7.23 µM
GI50 (K-562 leukemia): 5.09 µM
TGI (K-562 leukemia): 14 µM
GI50 (KM12 colon): 2.99 µM
TGI (KM12 colon): 6.39 µM
GI50 (LOX IMVI melanoma): 3.84 µM
TGI (LOX IMVI melanoma): 7.89 µM
GI50 (M14 melanoma): 3.94 µM
TGI (M14 melanoma): 7.47 µM
GI50 (MALME-3M melanoma): 4.69 µM
TGI (MALME-3M melanoma): 9.35 µM
GI50 (MCF7 breast): 2.92 µM
TGI (MCF7 breast): 6.16 µM
GI50 (MDA-MB-231 breast): 4.35 µM
TGI (MDA-MB-231 breast): 8.83 µM
GI50 (MDA-MB-435): 4.79 µM
TGI (MDA-MB-435): 9.42 µM
GI50 (MOLT-4 leukemia): 3.09 µM
TGI (MOLT-4 leukemia): 14.7 µM
GI50 (NCI-H226 lung): 11.9 µM
TGI (NCI-H226 lung): 15.8 µM
GI50 (NCI-H23 lung): 5.21 µM
TGI (NCI-H23 lung): 12.4 µM
GI50 (NCI-H460 lung): 2.76 µM
TGI (NCI-H460 lung): 6.31 µM
GI50 (NCI-H522 lung): 4.47 µM
TGI (NCI-H522 lung): 8.63 µM
GI50 (NCI/ADR-RES ovarian): 5.31 µM
TGI (NCI/ADR-RES ovarian): 13.9 µM
GI50 (OVCAR-3 ovarian): 3.56 µM
TGI (OVCAR-3 ovarian): 6.84 µM
GI50 (OVCAR-4 ovarian): 5.01 µM
TGI (OVCAR-4 ovarian): 9.61 µM
GI50 (OVCAR-5 ovarian): 5.69 µM
TGI (OVCAR-5 ovarian): 9.99 µM
GI50 (OVCAR-8 ovarian): 4.21 µM
TGI (OVCAR-8 ovarian): 9.44 µM
GI50 (PC-3 prostate): 3.92 µM
TGI (PC-3 prostate): 8.87 µM
GI50 (RPMI-8226 leukemia): 6.04 µM
TGI (RPMI-8226 leukemia): 14 µM
GI50 (RXF 393 renal): 1.28 µM
TGI (RXF 393 renal): 4.73 µM
GI50 (SF-268 CNS): 4.94 µM
TGI (SF-268 CNS): 11.2 µM
GI50 (SF-295 CNS): 2.95 µM
TGI (SF-295 CNS): 7.22 µM
GI50 (SF-539 CNS): 2.35 µM
TGI (SF-539 CNS): 6.07 µM
GI50 (SK-MEL-2 melanoma): 4.12 µM
TGI (SK-MEL-2 melanoma): 8.24 µM
GI50 (SK-MEL-28 melanoma): 4.75 µM
TGI (SK-MEL-28 melanoma): 8.56 µM
GI50 (SK-MEL-5 melanoma): 4.21 µM
TGI (SK-MEL-5 melanoma): 7.64 µM
GI50 (SK-OV-3 ovarian): 1.56 µM
TGI (SK-OV-3 ovarian): 5.71 µM
GI50 (SN12C renal): 3.67 µM
TGI (SN12C renal): 7.38 µM
GI50 (SNB-19 CNS): 7.3 µM
TGI (SNB-19 CNS): 20.5 µM
GI50 (SNB-75 CNS): 0.926 µM
TGI (SNB-75 CNS): 4.65 µM
GI50 (SR leukemia): 6.24 µM
TGI (SR leukemia): 16.3 µM
GI50 (SW-620 colon): 4.47 µM
TGI (SW-620 colon): 8.67 µM
GI50 (T-47D breast): 2.88 µM
TGI (T-47D breast): 7.53 µM
GI50 (TK-10 renal): 2.69 µM
TGI (TK-10 renal): 6.37 µM
GI50 (U251 CNS): 3.21 µM
TGI (U251 CNS): 6.67 µM
GI50 (UACC-257 melanoma): 5.18 µM
TGI (UACC-257 melanoma): 9.43 µM
GI50 (UACC-62 melanoma): 4.24 µM
TGI (UACC-62 melanoma): 8.08 µM
GI50 (UO-31 renal): 2.91 µM
TGI (UO-31 renal): 6.83 µM

— PubChem BioAssay (NCI)
